{"source": "patent US20200188237A1", "about": "“ENDODONTIC FORMULATIONS CONTAINING CYSTEAMINE AND CYSTEAMINE DERIVATIVES AND USES THEREOF” (University of Florida Research Foundation, Inc., priority 2017, published 2020)", "key": {"[1]": {"tested_on": "Fusobacterium nucleatum (ATCC10953)", "test": "Bacterial removal from root canals of inoculated extracted human mandibular molars, instrumentation/irrigation, qPCR", "type": "cell-based", "conditions": "pre- vs post-instrumentation/irrigation, human mandibular molars incubated 14 days anaerobic", "description": "(§1) Forty human mandibular molars were accessed, sterilized, inoculated with Enterococcus faecalis (OG1RF) and Fusobacterium nucleatum (ATCC10953), and incubated for 14 days under anaerobic conditions. Teeth were divided into 3 groups (n=10): 1) 6.15% NaOCl, 2) 8.25% NaOCl, 3) Cysteamine. Controls (n=5): negative without inoculation and positive without instrumentation/irrigation. Mesiobuccal and mesiolingual canals were instrumented using Vortex Blue to 30/.04 and the corresponding irrigant, followed by neutralization with EDTA and saline. Samples were collected pre- and post-instrumentation/irrigation. Total DNA was extracted and quantitative real-time PCR was performed. Data were analyzed using one-way ANOVA with Bonferroni's multiple comparisons (p<0.05). See FIG. 1 for a schematic representation of the methods."}, "[2]": {"tested_on": "Enterococcus faecalis (OG1RF)", "test": "Bacterial removal from root canals of inoculated extracted human mandibular molars, instrumentation/irrigation, qPCR", "type": "cell-based", "conditions": "pre- vs post-instrumentation/irrigation, human mandibular molars incubated 14 days anaerobic", "description": "as §1"}}}
{"compound": "NCCS", "note": "[Cysteamine]", "values": [{"measurement": "percent reduction in Fusobacterium nucleatum", "setting": "[1]; Cysteamine irrigant", "value": 68.5, "unit": "%"}, {"measurement": "percent reduction in Enterococcus faecalis", "setting": "[2]; Cysteamine irrigant", "value": 60, "unit": "%"}]}
{"compound": "OCl", "note": "[NaOCl, sodium hypochlorite]", "values": [{"measurement": "percent reduction in Fusobacterium nucleatum", "setting": "[1]; 6.15% NaOCl irrigant", "value": 59.9, "unit": "%"}, {"measurement": "percent reduction in Fusobacterium nucleatum", "setting": "[1]; 8.25% NaOCl irrigant", "value": 63.4, "unit": "%"}, {"measurement": "percent reduction in Enterococcus faecalis", "setting": "[2]; 6.15% NaOCl irrigant", "value": 49, "unit": "%"}, {"measurement": "percent reduction in Enterococcus faecalis", "setting": "[2]; 8.25% NaOCl irrigant", "value": 54, "unit": "%"}]}
